# Test results as given in patent US20240000872A1, “NOVEL BACTERIOPHAGE THAT LYSES ACINETOBACTER GENUS BACTERIA HAVING RESISTANCE TO ANTIBIOTICS” (priority 2020, published 2024).
# System: Acinetobacter baumannii strains
# Test: Antibiotic susceptibility test (CLSI disk diffusion test method, read per CLSI 2016); on antibiotic susceptibility S/I/R: key: ‘S’ means susceptible; ‘I’ means intermediate; ‘R’ means resistant; on antibiotic susceptibility class: key: ‘S’ means susceptible; ‘I’ means intermediate; ‘R’ means resistant; on susceptibility category (S/I/R): key: ‘S’ means susceptible; ‘I’ means intermediate; ‘R’ means resistant
# Type: cell-based
# Parameters: antibiotic susceptibility test value / susceptibility test value (number given before S/I/R) / antibiotic susceptibility value: unit not given here
substance,measurement,setting,value
piperacillin-tazobactam,antibiotic susceptibility class,host strain YMC14/01/C29,R
same,antibiotic susceptibility test value,host strain YMC14/01/C29,128
same,antibiotic susceptibility class,host strain YMC14/01/IP122,R
same,antibiotic susceptibility test value,host strain YMC14/01/IP122,128
same,antibiotic susceptibility class,host strain YMC14/01/L8,R
same,antibiotic susceptibility test value,host strain YMC14/01/L8,128
same,antibiotic susceptibility class,host strain YMC14/01/P31,R
same,antibiotic susceptibility test value,host strain YMC14/01/P31,128
same,antibiotic susceptibility class,host strain YMC14/01/P117,R
same,antibiotic susceptibility test value,host strain YMC14/01/P117,128
same,antibiotic susceptibility class,host strain YMC14/01/P224,R
same,antibiotic susceptibility test value,host strain YMC14/01/P224,128
same,antibiotic susceptibility class,host strain YMC14/01/P727,R
same,antibiotic susceptibility test value,host strain YMC14/01/P727,128
same,antibiotic susceptibility class,host strain YMC14/01/P728,R
same,antibiotic susceptibility test value,host strain YMC14/01/P728,128
same,antibiotic susceptibility class,host strain YMC14/01/R130,R
same,antibiotic susceptibility test value,host strain YMC14/01/R130,128
same,antibiotic susceptibility class,host strain YMC14/01/R160,R
same,antibiotic susceptibility test value,host strain YMC14/01/R160,128
same,antibiotic susceptibility class,host strain YMC14/01/R198,R
same,antibiotic susceptibility test value,host strain YMC14/01/R198,128
same,antibiotic susceptibility class,host strain YMC14/01/R257,R
same,antibiotic susceptibility test value,host strain YMC14/01/R257,128
same,antibiotic susceptibility class,host strain YMC14/01/R270,R
same,antibiotic susceptibility test value,host strain YMC14/01/R270,128
same,antibiotic susceptibility class,host strain YMC14/01/R324,R
same,antibiotic susceptibility test value,host strain YMC14/01/R324,128
same,antibiotic susceptibility class,host strain YMC14/01/R443,R
same,antibiotic susceptibility test value,host strain YMC14/01/R443,128
same,antibiotic susceptibility class,host strain YMC14/01/R451,R
same,antibiotic susceptibility test value,host strain YMC14/01/R451,128
same,antibiotic susceptibility class,host strain YMC14/01/R560,R
same,antibiotic susceptibility test value,host strain YMC14/01/R560,128
same,antibiotic susceptibility class,host strain YMC14/01/R617,R
same,antibiotic susceptibility test value,host strain YMC14/01/R617,128
same,antibiotic susceptibility class,host strain YMC14/01/R671,R
same,antibiotic susceptibility test value,host strain YMC14/01/R671,128
same,antibiotic susceptibility class,host strain YMC14/01/R732,R
same,antibiotic susceptibility test value,host strain YMC14/01/R732,128
same,antibiotic susceptibility class,host strain YMC14/01/R767,R
same,antibiotic susceptibility test value,host strain YMC14/01/R767,128
same,antibiotic susceptibility class,host strain YMC14/01/R904,R
same,antibiotic susceptibility test value,host strain YMC14/01/R904,128
same,antibiotic susceptibility class,host strain YMC14/01/R905,R
same,antibiotic susceptibility test value,host strain YMC14/01/R905,128
same,antibiotic susceptibility class,host strain YMC14/01/R921,R
same,antibiotic susceptibility test value,host strain YMC14/01/R921,128
same,antibiotic susceptibility class,host strain YMC14/01/R941,R
same,antibiotic susceptibility test value,host strain YMC14/01/R941,128
same,antibiotic susceptibility class,host strain YMC14/01/R958,R
same,antibiotic susceptibility test value,host strain YMC14/01/R958,128
same,antibiotic susceptibility class,host strain YMC14/01/R1006,R
same,antibiotic susceptibility test value,host strain YMC14/01/R1006,128
same,antibiotic susceptibility class,host strain YMC14/01/R1199,R
same,antibiotic susceptibility test value,host strain YMC14/01/R1199,128
same,antibiotic susceptibility class,host strain YMC14/01/R1659,R
same,antibiotic susceptibility test value,host strain YMC14/01/R1659,128
same,antibiotic susceptibility class,host strain YMC14/01/R1722,R
same,antibiotic susceptibility test value,host strain YMC14/01/R1722,128
same,antibiotic susceptibility class,host strain YMC14/01/R1752,R
same,antibiotic susceptibility test value,host strain YMC14/01/R1752,128
same,antibiotic susceptibility class,host strain YMC14/01/R2429,R
same,antibiotic susceptibility test value,host strain YMC14/01/R2429,128
same,antibiotic susceptibility class,host strain YMC14/01/R2572,R
same,antibiotic susceptibility test value,host strain YMC14/01/R2572,128
same,antibiotic susceptibility class,host strain YMC14/01/R2855,R
same,antibiotic susceptibility test value,host strain YMC14/01/R2855,128
same,antibiotic susceptibility class,host strain YMC14/01/R2945,R
same,antibiotic susceptibility test value,host strain YMC14/01/R2945,128
same,antibiotic susceptibility class,host strain YMC14/01/R3007,R
same,antibiotic susceptibility test value,host strain YMC14/01/R3007,128
same,antibiotic susceptibility class,host strain YMC14/01/R3129,R
same,antibiotic susceptibility test value,host strain YMC14/01/R3129,128
same,antibiotic susceptibility class,host strain YMC14/01/R3317,R
same,antibiotic susceptibility test value,host strain YMC14/01/R3317,128
same,antibiotic susceptibility class,host strain YMC14/01/R3474,R
same,antibiotic susceptibility test value,host strain YMC14/01/R3474,128
same,antibiotic susceptibility class,host strain YMC14/01/R3574,R
same,antibiotic susceptibility test value,host strain YMC14/01/R3574,128
same,antibiotic susceptibility class,host strain YMC14/01/U313,R
same,antibiotic susceptibility test value,host strain YMC14/01/U313,128
same,antibiotic susceptibility class,host strain YMC14/01/U318,R
same,antibiotic susceptibility test value,host strain YMC14/01/U318,128
same,antibiotic susceptibility class,host strain YMC14/02/L18,R
same,antibiotic susceptibility test value,host strain YMC14/02/L18,128
same,antibiotic susceptibility class,host strain YMC14/02/P47,R
same,antibiotic susceptibility test value,host strain YMC14/02/P47,128
same,antibiotic susceptibility class,host strain YMC14/02/R1860,R
same,antibiotic susceptibility test value,host strain YMC14/02/R1860,128
same,antibiotic susceptibility class,host strain YMC14/02/R2417,R
same,antibiotic susceptibility test value,host strain YMC14/02/R2417,128
same,antibiotic susceptibility class,host strain YMC14/02/R2599,R
same,antibiotic susceptibility test value,host strain YMC14/02/R2599,128
same,antibiotic susceptibility class,host strain YMC14/02/R2668,R
same,antibiotic susceptibility test value,host strain YMC14/02/R2668,128
same,antibiotic susceptibility class,host strain YMC14/02/R2758,R
same,antibiotic susceptibility test value,host strain YMC14/02/R2758,128
same,antibiotic susceptibility class,host strain YMC14/02/R2781,R
same,antibiotic susceptibility test value,host strain YMC14/02/R2781,128
same,antibiotic susceptibility class,host strain YMC14/02/R3106,R
same,antibiotic susceptibility test value,host strain YMC14/02/R3106,128
same,antibiotic susceptibility class,host strain YMC14/02/R3419,R
same,antibiotic susceptibility test value,host strain YMC14/02/R3419,128
same,antibiotic susceptibility class,host strain YMC14/02/U1607,R
same,antibiotic susceptibility test value,host strain YMC14/02/U1607,128
same,antibiotic susceptibility class,host strain YMC14/03/L9,R
same,antibiotic susceptibility test value,host strain YMC14/03/L9,128
same,antibiotic susceptibility class,host strain YMC14/03/P471,R
same,antibiotic susceptibility test value,host strain YMC14/03/P471,128
same,antibiotic susceptibility class,host strain YMC14/03/R122,R
same,antibiotic susceptibility test value,host strain YMC14/03/R122,128
same,antibiotic susceptibility class,host strain YMC14/03/R217,R
same,antibiotic susceptibility test value,host strain YMC14/03/R217,128
same,antibiotic susceptibility class,host strain YMC14/03/R380,R
same,antibiotic susceptibility test value,host strain YMC14/03/R380,128
same,antibiotic susceptibility class,host strain YMC14/03/R618,R
same,antibiotic susceptibility test value,host strain YMC14/03/R618,128
same,antibiotic susceptibility class,host strain YMC14/03/R2144,R
same,antibiotic susceptibility test value,host strain YMC14/03/R2144,128
same,antibiotic susceptibility class,host strain YMC14/03/U4616,R
same,antibiotic susceptibility test value,host strain YMC14/03/U4616,128
same,antibiotic susceptibility class,host strain YMC14/04/R1078,R
same,antibiotic susceptibility test value,host strain YMC14/04/R1078,128
same,antibiotic susceptibility class,host strain YMC14/04/R1080,R
same,antibiotic susceptibility test value,host strain YMC14/04/R1080,128
same,antibiotic susceptibility S/I/R,host strain YMC14/06/R2359,R
same,antibiotic susceptibility value,host strain YMC14/06/R2359,128
same,susceptibility category (S/I/R),host strain YMC14/06/R2359,R
same,susceptibility test value (number given before S/I/R),host strain YMC14/06/R2359,128
same,antibiotic susceptibility S/I/R,host strain YMC14/08/R1169,R
same,antibiotic susceptibility value,host strain YMC14/08/R1169,128
same,susceptibility category (S/I/R),host strain YMC14/08/R1169,R
same,susceptibility test value (number given before S/I/R),host strain YMC14/08/R1169,128
same,antibiotic susceptibility S/I/R,host strain YMC14/08/T90,R
same,antibiotic susceptibility value,host strain YMC14/08/T90,128
same,susceptibility category (S/I/R),host strain YMC14/08/T90,R
same,susceptibility test value (number given before S/I/R),host strain YMC14/08/T90,128
same,antibiotic susceptibility S/I/R,host strain YMC15/02/R436,R
same,antibiotic susceptibility value,host strain YMC15/02/R436,128
same,susceptibility category (S/I/R),host strain YMC15/02/R436,R
same,susceptibility test value (number given before S/I/R),host strain YMC15/02/R436,128
same,antibiotic susceptibility S/I/R,host strain YMC15/02/T28,R
same,antibiotic susceptibility value,host strain YMC15/02/T28,128
same,susceptibility category (S/I/R),host strain YMC15/02/T28,R
same,susceptibility test value (number given before S/I/R),host strain YMC15/02/T28,128
same,antibiotic susceptibility S/I/R,host strain YMC15/03/R1604,R
same,antibiotic susceptibility value,host strain YMC15/03/R1604,128
same,susceptibility category (S/I/R),host strain YMC15/03/R1604,R
same,susceptibility test value (number given before S/I/R),host strain YMC15/03/R1604,128
same,antibiotic susceptibility S/I/R,host strain YMC15/09/R1869,R
same,antibiotic susceptibility value,host strain YMC15/09/R1869,128
same,susceptibility category (S/I/R),host strain YMC15/09/R1869,R
same,susceptibility test value (number given before S/I/R),host strain YMC15/09/R1869,128
same,antibiotic susceptibility S/I/R,host strain YMC16/01/P11,R
same,antibiotic susceptibility value,host strain YMC16/01/P11,128
same,susceptibility category (S/I/R),host strain YMC16/01/P11,R
same,susceptibility test value (number given before S/I/R),host strain YMC16/01/P11,128
same,antibiotic susceptibility S/I/R,host strain YMC16/01/R123,R
same,antibiotic susceptibility value,host strain YMC16/01/R123,128
same,susceptibility category (S/I/R),host strain YMC16/01/R123,R
same,susceptibility test value (number given before S/I/R),host strain YMC16/01/R123,128
same,antibiotic susceptibility S/I/R,host strain YMC16/01/R198,R
same,antibiotic susceptibility value,host strain YMC16/01/R198,128
same,susceptibility category (S/I/R),host strain YMC16/01/R198,R
same,susceptibility test value (number given before S/I/R),host strain YMC16/01/R198,128
same,antibiotic susceptibility S/I/R,host strain YMC16/01/R353,R
